Measured values: ChEMBL document CHEMBL1201862, “PubChem BioAssay data set” (2004)
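Step 1: Grow cells in 96-well plates. Step 2: Expose to compound for 48 hours at 5 concentrations. Step 3: Interpolate endpoints linearly; if unreached, use highest concentration. Here, GI50 denotes the concentration required for 50% inhibition of growth.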 Activity calls are given as the source filed them. Cut-off read from the data, not from the text of the source: active = GI50 up to about 1.1 µM and inactive = higher.

Assays:
Experiment in all cases: DTP human tumour cell line panel, 48 h
LOX IMVI = system: LOX IMVI
OVCAR-5 = system: OVCAR-5
RPMI-8226 = system: RPMI-8226
DMS-273 = system: DMS-273
MOLT-4 = system: MOLT-4
SNB-75 = system: SNB-75
HCC 2998 = system: HCC 2998
LXFL 529 = system: LXFL 529
OVCAR-3 = system: OVCAR-3
KM-20L2 = system: KM-20L2
MCF7 = system: MCF7
HOP-18 = system: HOP-18
A498 = system: A498
UACC-257 = system: UACC-257
CCRF-CEM = system: CCRF-CEM
SK-OV-3 = system: SK-OV-3
PC-3 = system: PC-3
UO-31 = system: UO-31
MDA-MB-435 = system: MDA-MB-435
SW-620 = system: SW-620
SNB-78 = system: SNB-78
HCT-116 = system: HCT-116
HCT-15 = system: HCT-15
NCI/ADR-RES = system: NCI/ADR-RES
OVCAR-4 = system: OVCAR-4
HOP-92 = system: HOP-92
NCI-H522 = system: NCI-H522
SF-539 = system: SF-539
HL-60 = system: HL-60
SF-268 = system: SF-268
CAKI-1 = system: CAKI-1
SK-MEL-28 = system: SK-MEL-28
HT-29 = system: HT-29
MDA-N = system: MDA-N
XF498 = system: XF498
NCI-H23 = system: NCI-H23
HOP-62 = system: HOP-62
U-251 = system: U-251
Hs-578T = system: Hs-578T
NCI-H460 = system: NCI-H460
ACHN = system: ACHN
DU-145 = system: DU-145
A549 = system: A549
OVCAR-8 = system: OVCAR-8
SF-295 = system: SF-295
786-0 = system: 786-0
SNB-19 = system: SNB-19
COLO 205 = system: COLO 205
SR = system: SR
M14 = system: M14
NCI-H226 = system: NCI-H226
K562 = system: K562
RXF 393 = system: RXF 393
KM12 = system: KM12
IGROV-1 = system: IGROV-1
T47D = system: T47D
MDA-MB-231 = system: MDA-MB-231
DLD-1 = system: DLD-1
M19-MEL = system: M19-MEL
UACC-62 = system: UACC-62
EKVX = system: EKVX
Malme-3M = system: Malme-3M
SN12C = system: SN12C
BT-549 = system: BT-549
TK-10 = system: TK-10
DMS-114 = system: DMS-114
SK-MEL-2 = system: SK-MEL-2
SK-MEL-5 = system: SK-MEL-5

Measured: GI50

COc1ccc(/C=C\c2cc(OC)c(OC)c(OC)c2)cc1OC(=O)CC(N)C(=O)O (centres undefined)
active: LOX IMVI 0.00254 µM | OVCAR-5 0.327 µM | RPMI-8226 0.00148 µM | DMS-273 0.00195 µM | MOLT-4 0.00366 µM | SNB-75 0.000459 µM | HCC 2998 0.106 µM | LXFL 529 0.00191 µM | OVCAR-3 0.00224 µM | MCF7 0.00733 µM | HOP-18 0.703 µM | A498 0.00269 µM | UACC-257 0.00171 µM | CCRF-CEM 0.000418 µM | SK-OV-3 0.00423 µM | PC-3 0.000776 µM | UO-31 0.00759 µM | MDA-MB-435 0.000146 µM | SW-620 0.00135 µM | SNB-78 0.00208 µM | HCT-116 0.00103 µM | NCI/ADR-RES 0.000224 µM | OVCAR-4 0.189 µM | HOP-92 0.00052 µM | NCI-H522 0.00132 µM | SF-539 0.00222 µM | HL-60 0.000899 µM | SF-268 0.00305 µM | CAKI-1 0.307 µM | SK-MEL-28 0.000597 µM | HT-29 0.865 µM | MDA-N 0.000166 µM | XF498 0.00239 µM | NCI-H23 0.0021 µM | HOP-62 0.00382 µM | U-251 0.00262 µM | Hs-578T 0.000426 µM | NCI-H460 0.00219 µM | ACHN 0.00437 µM | DU-145 0.00293 µM | A549 0.00449 µM | OVCAR-8 0.00301 µM | SF-295 0.0021 µM | 786-0 0.0111 µM | SNB-19 0.0118 µM | COLO 205 0.635 µM | SR 0.00577 µM | M14 0.00247 µM | NCI-H226 0.054 µM | K562 0.000321 µM | RXF 393 0.00166 µM | KM12 0.00365 µM | IGROV-1 0.0124 µM | T47D < 0.01 µM | MDA-MB-231 0.00119 µM | DLD-1 0.0041 µM | M19-MEL 0.00135 µM | UACC-62 0.00113 µM | Malme-3M 0.00258 µM | SN12C 0.00521 µM | BT-549 0.00646 µM | TK-10 0.519 µM | DMS-114 0.00122 µM
0.00258 µM: HCT-15
inactive: KM-20L2 3.7 µM | EKVX 34.8 µM

Cc1cc2c(cc1C)[n+]([O-])c(C(=O)/C=C/c1ccccc1[N+](=O)[O-])c(C)[n+]2[O-]
inactive: LOX IMVI 71.1 µM | SK-MEL-2 41 µM | OVCAR-5 > 100 µM | RPMI-8226 > 73.3 µM | DMS-273 34.1 µM | MOLT-4 > 100 µM | SNB-75 11.1 µM | HCC 2998 71.6 µM | LXFL 529 > 91.6 µM | OVCAR-3 50.7 µM | KM-20L2 > 100 µM | MCF7 > 46.5 µM | HOP-18 38.5 µM | A498 61.2 µM | UACC-257 75.9 µM | SK-MEL-5 > 100 µM | CCRF-CEM > 100 µM | SK-OV-3 > 46.7 µM | PC-3 > 100 µM | UO-31 99.5 µM | MDA-MB-435 > 100 µM | SW-620 > 100 µM | SNB-78 27 µM | HCT-116 70.8 µM | NCI/ADR-RES > 100 µM | OVCAR-4 > 100 µM | HOP-92 34.4 µM | NCI-H522 28.6 µM | SF-539 31.2 µM | HL-60 89.5 µM | SF-268 34.2 µM | CAKI-1 47.2 µM | SK-MEL-28 71.4 µM | HT-29 > 92.3 µM | MDA-N > 96.2 µM | XF498 22.3 µM | NCI-H23 48.5 µM | HOP-62 34 µM | U-251 32.1 µM | Hs-578T 39.3 µM | NCI-H460 71.6 µM | ACHN 46.3 µM | DU-145 > 100 µM | A549 > 80.9 µM | OVCAR-8 61.5 µM | SF-295 36.3 µM | 786-0 33 µM | SNB-19 30.3 µM | COLO 205 99.3 µM | SR 55.6 µM | M14 74.6 µM | NCI-H226 67.5 µM | K562 > 100 µM | RXF 393 37.4 µM | KM12 > 100 µM | IGROV-1 > 80 µM | T47D > 77.3 µM | MDA-MB-231 > 65.5 µM | DLD-1 77.6 µM | M19-MEL > 80 µM | UACC-62 40 µM | EKVX 58.2 µM | Malme-3M 57 µM | SN12C 69 µM | BT-549 > 81.8 µM | TK-10 49.9 µM | DMS-114 17.8 µM
73.8 µM: HCT-15

COC(=O)CCC(=O)N1C/C(=C\c2ccccc2)C(=O)/C(=C/c2ccccc2)C1
active: LOX IMVI 0.447 µM | RPMI-8226 0.416 µM | DMS-273 0.708 µM | SW-620 0.191 µM | HCT-116 0.41 µM | KM12 0.807 µM
0.432 µM: HCT-15
inactive: OVCAR-5 2.7 µM | MOLT-4 1.83 µM | SNB-75 2.29 µM | HCC 2998 1.67 µM | LXFL 529 2.09 µM | OVCAR-3 2.31 µM | KM-20L2 2.24 µM | HOP-18 2.34 µM | A498 2.24 µM | UACC-257 1.89 µM | SK-MEL-5 2.2 µM | CCRF-CEM 2.74 µM | SK-OV-3 4.16 µM | UO-31 2.04 µM | SNB-78 2.77 µM | OVCAR-4 2.03 µM | HOP-92 6.03 µM | SF-539 2.94 µM | SF-268 2.28 µM | CAKI-1 1.75 µM | SK-MEL-28 2.31 µM | HT-29 1.72 µM | XF498 5.87 µM | NCI-H23 2.14 µM | HOP-62 12.6 µM | U-251 1.24 µM | NCI-H460 2.43 µM | ACHN 1.97 µM | A549 3.64 µM | OVCAR-8 3.1 µM | SF-295 2.31 µM | 786-0 2.03 µM | SNB-19 3.82 µM | COLO 205 2.06 µM | SR 1.18 µM | M14 1.98 µM | NCI-H226 3.41 µM | K562 1.43 µM | RXF 393 2.06 µM | IGROV-1 1.79 µM | DLD-1 2.04 µM | M19-MEL 2.39 µM | UACC-62 2.11 µM | EKVX 3.94 µM | Malme-3M 2.34 µM | SN12C 1.86 µM | TK-10 4.41 µM | DMS-114 1.73 µM
